# Measurements taken from patent US8796244B2, “Imidazopyridine derivatives as inhibitors of receptor tyrosine kinases” (Astex Therapeutics Ltd, priority 2008, dated 2014).
# Counter-ions that a name gives are not always drawn. Like-named read-outs stand apart in the source and are kept apart here.
# Assays:
# [1] = tested on: parental wild-type Ba/F3 cells; assay: Ba/F3 (WT) cell proliferation assay (Alamar Blue); assay type: cell-based; conditions: Mus musculus; for inhibition at 10 µM: BaF3, read-out: BaF3 WT prolif, % inhibition
# [2] = tested on: LP-1 cell line (FGF-1/Heparin induced pERK); assay: Cell-based pERK ELISA, LP-1 cells; conditions: Homo sapiens, LP-1, read-out: LP-1 pERK ELISA (μM)
# [3] = BaF3, 72 hours, Alamar Blue, read-out: BaF3 WT prolif
# [4] = BaF3, 72 h, read-out: BaF3 WT prolif (μM)
Compound,"IC50 [1, 3] [µM]",IC50 [2] [µM],inhibition at 10 µM [1] [%],"IC50 [1, 4] [µM]"
"O=C(NCC(F)(F)F)Nc1cccc(-c2cnc3cc(C#CCO)ccn23)c1 [Example 26, 1-{3-[7-(3-Hydroxyprop-1-ynyl)imidazo[1,2-a]pyridin-3-yl]phenyl}-3-(2,2,2-trifluoroethyl)urea]",0.77,0.27,–,–
"O=C(Nc1cccc(-c2cnc3cc(-c4ccc(F)cc4)ccn23)c1)NC1CC1 [Example 28, 1-Cyclopropyl-3-{3-[7-(4-fluorophenyl)imidazo[1,2-a]pyridin-3-yl]phenyl}urea]",–,0.17,35,–
"O=C(NCC(F)(F)F)Nc1cncc(-c2cnc3cc(C#CC4CC4)ccn23)c1 [Example 29, 1-[5-(7-Cyclopropylethynylimidazo[1,2-a]pyridin-3-yl)pyridin-3-yl]-3-(2,2,2-trifluoroethyl)urea]",3.1,0.12,–,–
"O=C(NCC(F)(F)F)Nc1cccc(-c2cnc3cc(-c4cnccn4)ccn23)c1 [Example 30, 1-[3-(7-Pyrazin-2-ylimidazo[1,2-a]pyridin-3-yl)phenyl]-3-(2,2,2-trifluoroethyl)urea]",0.13,0.045,–,–
"O=C(NCC(F)(F)F)Nc1cncc(-c2cnc3cc(Cl)ccn23)c1 [Example 31, 1-[5-(7-Chloroimidazo[1,2-a]pyridin-3-yl)pyridin-3-yl]-3-(2,2,2-trifluoroethyl)urea]",–,0.82,0,–
"O=C(NCC(F)(F)F)Nc1cccc(-c2cnc3cc(-c4ccc(Cl)nn4)ccn23)c1 [Example 33, 1-{3-[7-(6-Chloropyridazin-3-yl)-imidazo[1,2-a]pyridin-3-yl]phenyl}-3-(2,2,2-trifluoroethyl)urea]",0.32,0.057,–,–
"O=C(NCC(F)(F)F)Nc1cccc(-c2cnc3cc(-c4ccncn4)ccn23)c1 [Example 34, 1-[3-(7-Pyrimidin-4-ylimidazo[1,2-a]pyridin-3-yl)phenyl]-3-(2,2,2-trifluoroethyl)urea hydrochloride]",–,0.013,0,–
"O=C(NCC(F)(F)F)Nc1cncc(-c2cnc3cc(-c4ncccn4)ccn23)c1 [Example 35, 1-[5-(7-Pyrimidin-2-yl-imidazo[1,2-a]pyridine-3-yl)pyridin-3-yl]-3-(2,2,2-trifluoroethyl)urea hydrochloride]",–,0.33,0,–
"CN(C)C1CCN(c2ccc(-c3ccn4c(-c5cccc(NC(=O)NCC(F)(F)F)c5)cnc4c3)nn2)CC1 [Example 36, 1-(3-{7-[6-(4-Dimethylaminopiperidin-1-yl)pyridazin-3-yl]imidazo[1,2-a]pyridin-3-yl}-phenyl)-3-(2,2,2-trifluoroethyl)urea hydrochloride.]",–,0.065,0,–
"O=C(NCC(F)(F)F)Nc1cccc(-c2cnc3cc(-c4cnn(C5CNC5)c4)ccn23)c1 [Example 37, 1-{3-[7-(1-Azetidin-3-yl-1H-pyrazol-4-yl)-imidazo[1,2-a]pyridin-3-yl]phenyl}-3-(2,2,2-trifluoroethyl)urea]",–,0.29,3.3,–
"O=C(NCC(F)(F)F)Nc1cccc(-c2cnc3cc(-c4cnn(C5CCCNC5)c4)ccn23)c1 (stereo not drawn) [Example 40, 1-{3-[7-(1-Piperidin-3-yl-1H-pyrazol-4-yl)-imidazo[1,2-a]pyridin-3-yl]-phenyl}-3-(2,2,2-trifluoro-ethyl)-urea formate]",–,0.046,–,4
"CN1CC(n2cc(-c3ccn4c(-c5cccc(NC(=O)NCC(F)(F)F)c5)cnc4c3)cn2)C1 [Example 41, 1-(3-{7-[1-(1-Methyl-azetidin-3-yl)-1H-pyrazol-4-yl]-imidazo[1,2-a]pyridin-3-yl}-phenyl)-3-(2,2,2-trifluoro-ethyl)-urea formate]",–,0.025,–,2.8
"O=C(NCC(F)(F)F)Nc1cccc(-c2cnc3cc(-c4cncnc4)ccn23)c1 [Example 42, 1-[3-(7-Pyrimidin-5-yl-imidazo[1,2-a]pyridin-3-yl)-phenyl]-3-(2,2,2-trifluoro-ethyl)-urea hydrochloride]",–,0.27,–,1.1
"NC(=O)c1sccc1-c1ccn2c(-c3cccc(NC(=O)NCC(F)(F)F)c3)cnc2c1 [Example 43, 3-(3-{3-[3-(2,2,2-Trifluoroethyl)-ureido]-phenyl}-imidazo[1,2-a]pyridin-7-yl)-thiophene-2-carboxylic acid amide hydrochloride]",–,0.35,0,–
"O=C(NCC(F)(F)F)Nc1cccc(-c2cnc3cc(-c4cnn(C5CCNC5)c4)ccn23)c1 (stereo not drawn) [Example 45, 1-{3-[7-(1-Pyrrolidin-3-yl-1H-pyrazol-4-yl)-imidazo[1,2-a]pyridin-3-yl]-phenyl}-3-(2,2,2-trifluoro-ethyl)-urea]",–,0.35,0,–
"O=C(NCC(F)(F)F)Nc1cccc(-c2cnc3cc(-c4nccc(C(F)(F)F)n4)ccn23)c1 [Example 46, 1-(2,2,2-Trifluoro-ethyl)-3-{3-[7-(4-trifluoromethyl-pyrimidin-2-yl)-imidazo[1,2-a]pyridin-3-yl]-phenyl}-urea hydrochloride]",–,0.18,27,–
"O=C(NCC(F)(F)F)Nc1cccc(-c2cnc3cc(-c4cnn(C5CCOC5)c4)ccn23)c1 (stereo not drawn) [Example 47, 1-(3-{7-[1-(Tetrahydro-furan-3-yl)-1H-pyrazol-4-yl]-imidazo[1,2-a]pyridin-3-yl}-phenyl)-3-(2,2,2-trifluoro-ethyl)-urea hydrochloride]",–,0.0098,–,0.68
"COc1cc(OC)nc(-c2ccn3c(-c4cccc(NC(=O)NCC(F)(F)F)c4)cnc3c2)n1 [Example 48, 1-{3-[7-(4,6-Dimethoxy-pyrimidin-2-yl)-imidazo[1,2-a]pyridin-3-yl]-phenyl}-3-(2,2,2-trifluoro-ethyl)-urea hydrochloride]",–,0.13,0,–
"O=C(NCC(F)(F)F)Nc1cccc(-c2cnc3cc(-c4ccc(N5CCCCC5)nc4)ccn23)c1 [Example 49, 1-{3-[7-(3,4,5,6-Tetrahydro-2H-[1,2′]bipyridinyl-5′-yl)-imidazo[1,2-a]pyridin-3-yl]-phenyl}-3-(2,2,2-trifluoro-ethyl)-urea hydrochloride]",–,0.017,–,0.29
"COc1ccc(-c2ccn3c(-c4cccc(NC(=O)NCC(F)(F)F)c4)cnc3c2)nn1 [Example 51, 1-{3-[7-(6-Methoxy-pyridazin-3-yl)-1,7-imidazo[1,2-a]pyridin-3-yl]-phenyl}-3-(2,2,2-trifluoro-ethyl)-urea]",–,0.015,10,–
"O=C(NCC(F)(F)F)Nc1cccc(-c2cnc3cc(-c4ccc(=O)[nH]n4)ccn23)c1 [Example 52, 1-{3-[7-(6-Oxo-1,6-dihydropyridazin-3-yl)-imidazo[1,2-a]pyridin-3-yl]-phenyl}-3-(2,2,2-trifluoro-ethyl)-urea]",–,0.33,51,–
"O=C(NCC(F)(F)F)Nc1cccc(-c2cnc3cc(-c4nc5c(s4)CNCC5)ccn23)c1 [Example 53, 1-{3-[7-(4,5,6,7-Tetrahydro-thiazolo[5,4-c]pyridin-2-yl)-imidazo[1,2-a]pyridin-3-yl]-phenyl}-3-(2,2,2-trifluoroethyl)-urea formate]",–,0.023,–,4.1
"Cn1cc(C#Cc2ccn3c(-c4cccc(NC(=O)NCC(F)(F)F)c4)cnc3c2)cn1 [Example 56, 1-{3-[7-(1-Methyl-1H-pyrazol-4-ylethynyl)-imidazo[1,2-a]pyridin-3-yl]-phenyl}-3-(2,2,2-trifluoro-ethyl)-urea formate]",–,0.021,–,4.6
"Cc1cnc(-c2ccn3c(-c4cccc(NC(=O)NCC(F)(F)F)c4)cnc3c2)nc1 [Example 58, 1-{3-[7-(5-Methyl-pyrimidin-2-yl)-imidazo[1,2-a]pyridin-3-yl]-phenyl}-3-(2,2,2-trifluoro-ethyl)-urea hydrochloride]",–,0.077,–,0.7
"Cc1ccnc(-c2ccn3c(-c4cccc(NC(=O)NCC(F)(F)F)c4)cnc3c2)n1 [Example 59, 1-{3-[7-(4-Methyl-pyrimidin-2-yl)-imidazo[1,2-a]pyridin-3-yl]-phenyl}-3-(2,2,2-trifluoro-ethyl)-urea hydrochloride]",–,0.1,–,5.1
"O=C(NCC(F)(F)F)Nc1cccc(-c2cnc3cc(-c4ncc(F)cn4)ccn23)c1 [Example 60, 1-{3-[7-(5-Fluoro-pyrimidin-2-yl)-imidazo[1,2-a]pyridin-3-yl]-phenyl}-3-(2,2,2-trifluoro-ethyl)-urea hydrochloride]",–,0.087,0,–
"Cc1nccc(-c2ccn3c(-c4cccc(NC(=O)NCC(F)(F)F)c4)cnc3c2)n1 [Example 61, 1-{3-[7-(2-Methyl-pyrimidin-4-yl)-imidazo[1,2-a]pyridin-3-yl]-phenyl}-3-(2,2,2-trifluoro-ethyl)-urea hydrochloride]",–,0.064,15,–
"Cn1nc(-c2ccn3c(-c4cccc(NC(=O)NCC(F)(F)F)c4)cnc3c2)ccc1=O [Example 62, 1-{3-[7-(1-Methyl-6-oxo-1,6-dihydro-pyridazin-3-yl)-imidazo[1,2-a]pyridin-3-yl]-phenyl}-3-(2,2,2-trifluoro-ethyl)-urea hydrochloride]",–,0.11,–,1.1
"Cc1ncc(C#Cc2ccn3c(-c4cccc(NC(=O)NCC(F)(F)F)c4)cnc3c2)n1C [Example 64, 1-{3-[7-(2,3-Dimethyl-3H-imidazol-4-ylethynyl)-imidazo[1,2-a]pyridin-3-yl]-phenyl}-3-(2,2,2-trifluoro-ethyl)-urea]",2.5,0.049,–,–
"CN1CCC(O)(C#Cc2ccn3c(-c4cccc(NC(=O)NCC(F)(F)F)c4)cnc3c2)CC1 [Example 65, 1-{3-[7-(4-Hydroxy-1-methyl-piperidin-4-ylethynyl)-imidazo[1,2-a]pyridin-3-yl]-phenyl}-3-(2,2,2-trifluoro-ethyl)-urea formate]",–,1.3,8.3,–
